In patent US10828301B2, “2,4-pyrimidinediamine compounds and their uses” (Rigel Pharmaceuticals, Inc, priority 2002, dated 2020):
Where a name gives a salt, the structure may show the parent alone. Read-outs that look alike come from different tables or passages of the source.

Key:
Type in all cases: cell-based
[1] = test system: basophils in whole human peripheral blood; assay: Basophil ionomycin activation: histamine release assay
Procedure: Assays for ionomycin-induced basophil cell degranulation were carried out as described for the Basophil IgE or Dustmite Activation Assay (Section 6.4.6, supra), with the exception that following incubation with compound, cells were stimulated with 20 μl of 2 μM ionomycin.

[2] = test system: ionophore-induced degranulation of mast and/or basophil cells; assay: Ionophore (ionomycin or A23187)-induced degranulation counter screen; settings: high density BMMC, ionomycin activation, hexosaminidase release, read-out: BMMC Ionomycin Hexos. IC50
Text: In addition to the FcεRI or FcγRI degranulation pathways discussed above, degranulation of mast and/or basophil cells can be induced by other agents. For example, ionomycin, a calcium ionophore that bypasses the early FcεRI or FcγRI signal transduction machinery of the cell, directly induces a calcium flux that triggers degranulation. Referring again to FIG. 2, activated PLCγ initiates pathways that lead to, among other things, calcium ion mobilization and subsequent degranulation. As illustrated, this Ca^2+ mobilization is triggered late in the FcεRI signal transduction pathway. […] Other ionophores that induce degranulation in this manner include A23187. The ability of granulation-inducing ionophores such as ionomycin to bypass the early stages of the FcεRI and/or FcγRI signaling cascades may be used as a counter screen to identify active compounds of the invention that specifically exert their degranulation-inhibitory activity by blocking or inhibiting the early FcεRI or FcγRI signaling cascades, as discussed above.
Assays suitable for determining the IC50 of ionophore-induced degranulation include any of the previously-described degranulation assays, with the modification that the cells are stimulated or activated with a degranulation-inducing calcium ionophore such as ionomycin or A23187 (A.G. Scientific, San Diego, Calif.) instead of anti-IgE antibodies or an IgE-specific allergen. Specific assays for assessing the ability of a particular 2,4-pyrimidinediamine compound of the invention to inhibit ionophore-induced degranulation are provided in the Examples section.

[3] = test system: bone marrow derived mast cells (BMMC); assay: BMMC high cell density IgE activation: degranulation (hexosiminidase, histamine), leukotriene (LTC4) and cytokine (TNFalpha, IL-6) assays; settings: Mus musculus, anti-IgE activation, hexosaminidase release, read-out: BMMC anti-IgE hexos IC50
Procedure: After sensitizing, cells are counted, pelleted (1000 rpm, 5-10 minutes), and resuspended at 1-3×10^6 cells/ml in MT buffer. Add 100 ul of cell suspension to each well and 100 ul of compound dilutions. The final vehicle concentration is 0.5% DMSO. Incubate at 37° C. (5% CO2) for 1 hour. After 1 hour of compound treatment, stimulate cells with 6× stimulus (60 ng/ml DNP-BSA). Mix wells with the cells and allow plates to incubate at 37° C. (5% CO2) for one hour. After 1 hour incubation, pellet cells (10 minutes, 1000 RPM) and collect 200 ul per well of the supernatant, being careful not to disturb pellet, and transfer to a clean tube or 96-well plate. Place the supernatant plate on ice. During the 4-5 hour step (see next) perform the hexosiminidase assay. Resuspend cell pellet in 240 ul WEI-conditioned media containing 0.5% DMSO and corresponding concentration of compound. Incubate BMMC cells for 4-5 hours at 37° C. (5% CO2). After incubation, pellet cells (1000 RPM, 10 minutes) and collect 225 ul per well and place in −80° C. until ready to perform ELISAS. ELISAS are performed on appropriately diluted samples (determined empirically for each donor cell population so that the sample measurement falls within the standard curve) following the supplier's instructions.
Add 50 uL of BMMC cell supernatant (see above) to the hexoseaminidase substrate, place at 37° C. for 30 minutes and read the plate at 5, 10, 15, and 30 minutes on a spectrophotometer.

[4] = test system: basophils in whole human peripheral blood; assay: Basophil IgE activation: histamine release assay; settings: anti-IgE activation
Procedure: The basophil activation assay was carried out using whole human peripheral blood from donors allergic to dust mites with the majority of the red blood cells removed by dextran sedimentation. Human peripheral blood was mixed 1:1 with 3% dextran T500 and RBCs were allowed to settle for 20-25 min. The upper fraction was diluted with 3 volumes of D-PBS and cells were spun down for 10 min at 1500 rpm, RT. Supernatant was aspirated and cells were washed in an equal volume MT-buffer. Finally, cells were resuspended in MT-buffer containing 0.5% DMSO in the original blood volume. 80 uL cells were mixed with 20 uL compound in the presence of 0.5% DMSO, in triplicate, in a V-bottom 96-well tissue culture plate. A dose range of 8 compound concentrations was tested resulting in a 10-point dose response curve including maximum (stimulated) and minimum (unstimulated) response. […] The cells were stimulated for 30 minutes at 37° C., 5% CO2. The plate was spun for 10 min at 1500 rpm at room temperature and 80 uL the supernatant was harvested for histamine content analysis using the histamine ELISA kit supplied by Immunotech. The ELISA was performed according to supplier's instructions.

[5] = test system: cultured human mast cells (CHMC); assay: CHMC low cell density IgE activation: tryptase and LTC4 assays; settings: Homo sapiens, Mast cell, Low Density CHMC, anti-IgE activation
Method in brief: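 Degranulation measured after 30 min anti-IgE challenge at 37° C of CHMC plated at 1000-1500 cells/well following 1 h preincubation. Readouts: LTC4 by ELISA on donor-specific diluted supernatants, and tryptase activity from a 30 min room-temperature substrate reaction.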

[6] = test system: cultured human mast cells (CHMC); assay: CHMC low cell density ionomycin activation: tryptase assay; settings: Homo sapiens, Mast cell, Low Density CHMC, ionomycin activation
[7] = hexosaminidase readout, read-out: CHMC anti-IgE Hexos.
[8] = hexosaminidase readout, read-out: CHMC Ionomycin Hexos.

| Structure (SMILES) | IC50 ([2]; Mus musculus) [µM] | IC50 [3] [µM] | IC50 ([4]; Homo sapiens) [µM] | IC50 ([1]; Homo sapiens) [µM] | IC50 [5, 7] [µM] | also measured |
| --- | --- | --- | --- | --- | --- | --- |
| O=C(c1cc2cc(Nc3ncc(F)c(Nc4cccc(O)c4)n3)ccc2o1)N1CCNCC1 [Compound R926502, 5-Fluoro-N4-(3-hydroxyphenyl)-N2-[2-(N-piperazino)carbonylbenzofuran-5-yl]-2,4-pyrimidinediamine Hydrogen Chloride Salt] | – | – | – | – | – | IC50 [1]: > 10 µM |
| Fc1cnc(Nc2ccc(C(F)(F)F)cc2)nc1Nc1ccc(C(F)(F)F)cc1 [Compound R926016, N2,N4-Bis(4-trifluoromethylphenyl)-5-fluoro-2,4-pyrimidinediamine] | > 10 | > 10 | > 10 | > 10 | – | – |
| CCOc1ccc(Nc2nc(Nc3ccc4c(c3)OCCO4)ncc2F)cc1 [Compound R926213, N4-(4-Ethoxyphenyl)-N2-(3,4-ethylenedioxyphenyl)-5-fluoro-2,4-pyrimidinediamine] | – | – | 1.75 | > 10 | – | IC50 ([5]; tryptase readout, read-out: CHMC anti-IgE Tryptase): 1.64 µM; IC50 ([6]; tryptase readout, read-out: CHMC Ionomycin Tryptase): 5.5 µM |
| Fc1cnc(Nc2ccc(Cl)c(C(F)(F)F)c2)nc1Nc1ccc(Cl)c(C(F)(F)F)c1 [Compound R926039, N2,N4-Bis(4-chloro-3-trifluoromethylphenyl)-5-fluoro-2,4-pyrimidinediamine] | > 10 | > 10 | > 10 | > 10 | – | – |
| CN(C)c1ccc(Nc2ncc(F)c(Nc3ccc(N(C)C)cc3)n2)cc1 [Compound R926086, N2,N4-Bis[4-(N,N-dimethylamino)phenyl]-5-fluoro-2,4-pyrimidinediamine] | 7.3 | 2.8 | 2.5 | > 10 | – | – |
| CC(C)(C)c1ccc(Nc2ncc(F)c(Nc3ccc4c(c3)OCCO4)n2)cc1 [Compound R926219, N2-(4-tert-Butylphenyl)-N4-(3,4-ethylenedioxyphenyl)-5-fluoro-2,4-pyrimidinediamine] | 3.2 | 2.5 | – | – | 1.1 | IC50 [6, 8]: 6.7 µM |
| Fc1cnc(Nc2cccc(OC(F)(F)F)c2)nc1Nc1cccc(OC(F)(F)F)c1 [Compound R926038, N2,N4-Bis(3-trifluoromethoxyphenyl)-5-fluoro-2,4-pyrimidinediamine] | > 10 | > 10 | > 10 | > 10 | – | – |
| Fc1cnc(Nc2ccc(Cl)cc2)nc1Nc1ccc(Cl)cc1 [Compound R926206, N2,N4-Bis(4-chlorophenyl)-5-fluoro-2,4-pyrimidinediamine] | 8.6 | 6.6 | > 10 | > 10 | – | – |
| Fc1cc(Nc2ncc(F)c(Nc3ccc(C(F)(F)F)c(F)c3)n2)ccc1C(F)(F)F [Compound R926018, N2,N4-Bis(3-fluoro-4-trifluoromethylphenyl)-5-fluoro-2,4-pyrimidinediamine] | > 10 | 8.5 | > 10 | 10 | – | – |
| CCOc1ccc(Nc2ncc(F)c(Nc3ccc(OC)c(OC)c3)n2)cc1 [Compound R926145, N4-(3,4-Dimethoxyphenyl)-N2-(4-ethoxyphenyl)-5-fluoro-2,4-pyrimidinediamine] | 8.8 | 2.4 | – | – | 4.76 | IC50 [6, 8]: > 10 µM |
| CCOc1ccc(Nc2cc(C(=O)OC)nc(Nc3ccc(OCC)cc3)n2)cc1 [Compound R926058, N2,N4-Bis(4-ethoxyphenyl)-6-methoxycarbonyl-2,4-pyrimidinediamine] | > 10 | > 10 | > 10 | > 10 | – | – |
| Fc1cccc(Nc2ncc(F)c(Nc3ccc4c(c3)OCCO4)n2)c1 [Compound R926221, N4-(3,4-Ethylenedioxyphenyl)-N2-(3-fluorophenyl)-5-fluoro-2,4-pyrimidinediamine] | > 10 | 9.9 | – | – | 8.5 | – |
| Fc1ccc(Nc2ncc(F)c(Nc3ccc(F)c(Cl)c3)n2)cc1Cl [Compound R926223, N2,N4-Bis(3-chloro-4-fluorophenyl)-5-fluoro-2,4-pyrimidinediamine] | > 10 | > 10 | – | – | > 10 | – |
| CCOc1ccc(Nc2ccnc(Nc3ccc(OCC)cc3)n2)cc1 [Compound R926069, N2,N4-Bis(4-ethoxyphenyl)-2,4-pyrimidinediamine] | 4.4 | 4.5 | – | – | 9.1 | – |
| CCOc1ccc(Nc2cc(Cl)nc(Nc3ccc(OCC)cc3)n2)cc1 [Compound R926072, N2,N4-Bis(4-ethoxyphenyl)-6-chloro-2,4-pyrimidinediamine] | > 10 | > 10 | – | – | > 10 | – |
| COc1ccc(Nc2nc(Nc3cccc(O)c3)ncc2F)cc1OC [Compound R926147, N4-(3,4-Dimethoxyphenyl)-5-fluoro-N2-(3-hydroxyphenyl)-2,4-pyrimidinediamine] | 7.1 | 2 | – | – | 1.9 | IC50 [6, 8]: > 10 µM |
| Fc1cnc(Nc2ccc3c(c2)OC(F)(F)C(F)(F)O3)nc1Nc1ccc2c(c1)OC(F)(F)C(F)(F)O2 [Compound R926037, N2,N4-Bis(3,4-tetrafluoroethylendioxyphenyl)-5-fluoro-2,4-pyrimidinediamine] | – | – | – | – | – | IC50 [2]: > 10 µM; IC50 [4]: > 10 µM; IC50 [1]: > 10 µM |
| O=C(c1cc2cc(Nc3ncc(F)c(Nc4ccc5c(c4)OCCO5)n3)ccc2o1)N1CCNCC1 [Compound R926501, N4-(3,4-Ethylenedioxyphenyl)-5-fluoro-N2-[2-(N-piperazino)carbonylbenzofuran-5-yl]-2,4-pyrimidinediamine Hydrogen Chloride Salt] | – | – | – | – | – | IC50 [1]: > 10 µM |
| CCOc1ccc(Nc2ncc(C)c(Nc3ccc(OCC)cc3)n2)cc1 [Compound R926068, N2,N4-Bis(4-ethoxyphenyl)-5-methyl-2,4-pyrimidinediamine] | 8.2 | 7.4 | – | – | > 10 | – |
| Fc1ccc(Nc2ncc(F)c(Nc3ccc(F)cc3)n2)cc1 [Compound R926224, N2,N4-Bis(4-fluorophenyl)-5-fluoro-2,4-pyrimidinediamine] | > 10 | > 10 | – | – | > 10 | – |
| Fc1cnc(Nc2cccc(Cl)c2)nc1Nc1cccc(Cl)c1 [Compound R926209, N2,N4-Bis(3-chlorophenyl)-5-fluoro-2,4-pyrimidinediamine] | 9.1 | 10 | > 10 | > 10 | – | – |
